Measured values taken from paper PMC5405074, “Receptor-Mediated Melanoma Targeting with Radiolabeled α-Melanocyte-Stimulating Hormone: Relevance of the Net Charge of the Ligand” (Frontiers in Endocrinology, 2017).
Read-outs that look alike come from different tables or passages of the source. Non-standard residues stand in square brackets, D forms with d. Residues, ends and D or L forms follow the SMILES beside them. *: point of attachment. DOTA = O=C(O)CN1CCN(CC(=O)O)CCN(CC(=O)*)CCN(CC(=O)O)CC1; pY = N[C@@H](Cc1ccc(OP(=O)(O)O)cc1)C(=O)O; Nle = CCCC[C@H](N)C(=O)O

Key:
[1] = target: T1, MC1R (B16-F1 cells) (Mus musculus, UniProt Q01727); assay: Competition binding assay with [^125I]-NDP-MSH, mouse B16-F1 melanoma cells
T1 construct: endogenous in cells; host or cells: mouse B16-F1 melanoma cells
T1 sequence (Q01727 whole entry): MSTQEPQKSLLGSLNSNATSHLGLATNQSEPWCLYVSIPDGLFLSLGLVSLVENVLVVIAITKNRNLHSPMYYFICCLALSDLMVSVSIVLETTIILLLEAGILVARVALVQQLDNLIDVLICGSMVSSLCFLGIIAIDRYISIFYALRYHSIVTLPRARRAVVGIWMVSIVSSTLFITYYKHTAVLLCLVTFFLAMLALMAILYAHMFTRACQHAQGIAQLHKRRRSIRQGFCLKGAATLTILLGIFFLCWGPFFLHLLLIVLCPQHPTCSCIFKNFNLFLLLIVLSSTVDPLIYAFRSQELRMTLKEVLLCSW
Description: (§1) Triplicates of 100-µL volumes of B16-F1 or HBL cell suspensions adjusted to 4 × 10^6/mL were incubated in 96-well U-bottom microplates (Falcon 3077). The binding medium consisted of MEM with Earle’s salts, 0.2% BSA, and 0.3 mM 1,10-phenanthroline. This binding medium was called mouse binding medium (MBM). Triplicates of competitor peptide solution (50 µL) yielding final concentrations ranging from 1 × 10^−6 to 1 × 10^−12 M were added. [^125I]NDP-MSH (50,000 cpm) in 50 µL was finally added to each well. The plates were incubated at 15°C for 3 h for B16-F1 cells and at 37°C for 2 h for HBL cells. The incubation was stopped by covering the plates with ice for 10 min. A cell harvester was used to collect cell-bound radioactivity on filters (Packard Unifilter-96 GF/B). The collected radioactivity was counted on a TopCount scintillation counter (Packard) after addition of 50 µL Microscint-20 scintillation cocktail (Perkin Elmer). The IC50 values were calculated with the Prism 6 software (GraphPad Software Inc., San Diego CA, USA).
(§2) The binding affinity of the peptides to MC1R was assessed by competition binding assays using [^125I]-NDP-MSH as radioligand and both murine B16-F1 and human HBL cells.

[2] = system: B16-F1 tumor-bearing mice; assay: Biodistribution of ^111In-labeled peptides in B16-F1 melanoma-bearing mice; assay type: in vivo, mouse (B6D2F1)
Description: (§3) About 5 × 10^5 B16-F1 cells were implanted subcutaneously to female B6D2F1 mice (C57BL/6 × DBA/2F1 hybrids; breeding pairs obtained from IFFA-CREDO, France). Seven days later, 185 kBq of ^111In-labeled ligand in 200 µL PBS/0.1% BSA were injected intravenously into the lateral tail vein of each mouse. Control mice were injected with a mixture of the tracer and 50 µg α-MSH to determine the non-specific uptake of radioligand. The animals were sacrificed 4, 24, and 48 h postinjection, dissected, and the tissues of interest collected, rinsed of excess blood, and weighed. The radioactivity emitted by each organ was measured in a γ-counter to determine the tissue uptake as percentage of the injected dose (ID) per gram of tissue. The total of injected radioactivity per animal was determined by extrapolation from the counts of a standard collected from the injection solution for each animal. Urine samples were collected at 10, 15, and 20 min and 4 h after injection and kept frozen at −80°C until use. Urine (1 vol) was mixed with methanol (2 vol) to precipitate proteins, and the supernatant was analyzed by RP-HPLC/γ-detection, as described in Ref. ([12]).
(§4) Results are expressed as means ± SEM, unless otherwise stated. The statistical evaluation of data was performed using the one- or two-way ANOVA test. When significant overall effects were obtained by ANOVA, multiple comparisons were made with the Bonferroni correction. P < 0.05 was considered statistically significant. The area under the curve (AUC) was calculated with the GraphPad Prism 6 software for the indicated period of time, using the mean tissue uptake value at each time point.

[3] = as above; assay type: in vivo, mouse (B6D2F1); conditions: female, iv, total radioactivity, ^111In-labeled peptide, 185 kBq i.v., mean ± SEM of three experiments, n = 5 animals each
Description: as §3, §4

[4] = target: T2, MC1R (HBL cells) (Homo sapiens, UniProt Q01726); assay: Competition binding assay with [^125I]-NDP-MSH, human HBL melanoma cells
T2 construct: endogenous in cells; host or cells: human HBL melanoma cell line
T2 sequence (Q01726 whole entry): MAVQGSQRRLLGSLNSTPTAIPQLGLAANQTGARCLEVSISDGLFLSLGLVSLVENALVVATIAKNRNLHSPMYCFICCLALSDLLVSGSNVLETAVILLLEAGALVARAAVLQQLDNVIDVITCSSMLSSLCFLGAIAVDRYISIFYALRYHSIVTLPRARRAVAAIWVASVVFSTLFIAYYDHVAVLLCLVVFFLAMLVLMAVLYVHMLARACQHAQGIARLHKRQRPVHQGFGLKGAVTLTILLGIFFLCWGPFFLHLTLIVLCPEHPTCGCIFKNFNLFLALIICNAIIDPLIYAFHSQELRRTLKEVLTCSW
Description: as §1, §2

[5] = ^111In-labeled peptide, 185 kBq i.v., 4 h, mean ± SEM of three experiments, n = 5 animals each
[6] = B6D2F1 (C57BL/6 × DBA/2F1 hybrids), mouse, blood, read-out: Blood uptake
[7] = B6D2F1 (C57BL/6 × DBA/2F1 hybrids), mouse, muscle, read-out: Muscle uptake
[8] = B6D2F1 (C57BL/6 × DBA/2F1 hybrids), mouse, skin, read-out: Skin uptake
[9] = B6D2F1 (C57BL/6 × DBA/2F1 hybrids), mouse, tumor, read-out: Tumor uptake
[10] = B6D2F1, mouse, bone, read-out: Bone uptake
[11] = B6D2F1, mouse, heart, read-out: Heart uptake
[12] = B6D2F1, mouse, kidney, read-out: Kidney uptake
[13] = B6D2F1, mouse, liver, read-out: Liver uptake
[14] = B6D2F1, mouse, lung, read-out: Lung uptake
[15] = B6D2F1, mouse, pancreas, read-out: Pancreas uptake
[16] = B6D2F1, mouse, small intestines, read-out: Small intestines uptake
[17] = B6D2F1, mouse, spleen, read-out: Spleen uptake
[18] = B6D2F1, mouse, stomach, read-out: Stomach uptake

Compound: CCCC[C@H](NC(=O)[C@H](Cc1ccc(OP(=O)(O)O)cc1)NC(=O)CNC(=O)CN1CCN(CC(=O)O)CCN(CC(=O)O)CCN(CC(=O)O)CC1)C(=O)N[C@@H](CC(=O)O)C(=O)N[C@@H](Cc1c[nH]cn1)C(=O)N[C@H](Cc1ccccc1)C(=O)N[C@@H](CCCNC(=N)N)C(=O)N[C@@H](Cc1c[nH]c2ccccc12)C(N)=O [DOTA-Phospho-MSH2-9, DOTA-Gly-Tyr(P)-Nle-Asp-His-D-Phe-Arg-Trp-NH2] ({DOTA}-G[pY][Nle]DH[dF]RW-NH2)
- IC50 [1]: 2.32 ± 0.8 nM
- Tumor-to-kidney ratio compared with other peptides (in words) ([2]; AUC (4–48 h) or overall comparison): best tumor-to-kidney ratio of all linear MSH peptides so far investigated
- Kidney uptake [2, 5]: 2.68 ± 0.18 %ID/g
- Tumor uptake [2, 5]: 7.33 ± 0.47 %ID/g
- tissue uptake at 4 h [3, 6]: 0.02 %ID/g
- tissue uptake at 24 h [3, 6]: 0.01 %ID/g
- tissue uptake at 48 h ([3]; B6D2F1 (C57BL/6 × DBA/2F1 hybrids), mouse, bone, read-out: Bone uptake): 0.06 ± 0.01 %ID/g
- tissue uptake at 4 h [3, 7]: 0.02 %ID/g
- tissue uptake at 24 h [3, 7]: 0.02 %ID/g
- tissue uptake at 48 h [3, 7]: 0.02 %ID/g
- tissue uptake at 4 h [3, 8]: 0.12 ± 0.03 %ID/g
- tissue uptake at 24 h [3, 8]: 0.07 ± 0.02 %ID/g
- tissue uptake at 48 h [3, 8]: 0.08 ± 0.02 %ID/g
- tissue uptake at 24 h [3, 9]: 2.92 ± 0.12 %ID/g
- tissue uptake at 48 h [3, 9]: 1.21 ± 0.18 %ID/g
- tissue uptake at 4 h [3, 10]: 0.08 ± 0.01 %ID/g
- tissue uptake at 24 h [3, 10]: 0.11 ± 0.02 %ID/g
- tissue uptake at 4 h [3, 11]: 0.04 %ID/g
- tissue uptake at 24 h [3, 11]: 0.03 %ID/g
- tissue uptake at 48 h [3, 11]: 0.03 %ID/g
- tissue uptake at 24 h [3, 12]: 1.88 ± 0.11 %ID/g
- tissue uptake at 48 h [3, 12]: 1.04 ± 0.07 %ID/g
- tissue uptake at 4 h [3, 13]: 0.2 ± 0.01 %ID/g
- tissue uptake at 24 h [3, 13]: 0.16 ± 0.02 %ID/g
- tissue uptake at 48 h [3, 13]: 0.12 ± 0.01 %ID/g
- tissue uptake at 4 h [3, 14]: 0.07 ± 0.02 %ID/g
- tissue uptake at 24 h [3, 14]: 0.04 %ID/g
- tissue uptake at 48 h [3, 14]: 0.03 %ID/g
- tissue uptake at 4 h [3, 15]: 0.05 ± 0.01 %ID/g
- tissue uptake at 24 h [3, 15]: 0.03 %ID/g
- tissue uptake at 48 h [3, 15]: 0.03 %ID/g
- tissue uptake at 4 h [3, 16]: 0.11 ± 0.03 %ID/g
- tissue uptake at 24 h [3, 16]: 0.06 %ID/g
- tissue uptake at 48 h [3, 16]: 0.06 %ID/g
- tissue uptake at 4 h [3, 17]: 0.11 ± 0.01 %ID/g
- tissue uptake at 24 h [3, 17]: 0.1 ± 0.01 %ID/g
- tissue uptake at 48 h [3, 17]: 0.09 ± 0.01 %ID/g
- tissue uptake at 4 h [3, 18]: 0.17 ± 0.08 %ID/g
- tissue uptake at 24 h [3, 18]: 0.16 ± 0.02 %ID/g
- tissue uptake at 48 h [3, 18]: 0.07 %ID/g
- IC50 [4]: 3.03 ± 0.59 nM
